# From US20090106856A1, “Selection System for Wheat” (BASF PLANT SCIENCE GMBH, priority 2005, published 2009)
# Key:
# [1] = system: wheat variety Canon immature embryos / embryogenic callus; assay: Agrobacterium-mediated transformation with dsdA constructs and selection of transgenic plants; type: cell-based, Triticum aestivum
# Experimental: (§1) Explants were washed with PAW-Inf. medium and immersed in the above-described bacterial suspension for 2 h at 26° C. At the end of infection the explants were placed with scutellum side up on PAW-1 medium. The residual bacterial suspension is removed by pipeting out and air-drying of the infected embryos by opening plates for 15 min on the sterile banch. Plates were sealed with Parafilm and placed in thermostat at 26° C. in the dark for 5-6 days co-cultivation.
# (§2) After co-cultivation period the explants were washed with sterile water and 500 mg/L Cefotaxime and filter paper dried before being transferred to PAW-2 callus induction-recovery medium containing 160 mg/l Timentin for 14 days (7 days dark/7 days semi light; 13.2 μmol m^−2s^−1). Explants with embryogenic callus were subculture to PAW-2 callus-proliferation medium containing 160 mg/l Timentin and corresponding selection 5 mM D-serine or 5 mM D-alanine or 3 mg/l bialaphos. In some experiments the selection on D-amino acids was starting on PAW-2 callus induction medium 0, 7, 14 and 21 days after co cultivation. Embryogenic callus was subculture twice on fresh selective medium for callus maintaining and regeneration on PAW-4 medium with corresponding selection. Cultures were maintained at 23° C. on light 60.2 μmol m^−2s^−1. Regenerated shoots were subculture to PAW-5 hormone free medium with corresponding selection (5 mM D-serine or 5 mM D-alanine or 3 mg/l bialaphos) for further growth and rooting. All media used in the transformation experiments were filter sterilized and are listed in above. After analyses transgenic plants were transferred to soil and placed for further growth in greenhouse. 1.4 Molecular and expression studies of the transgenic plants
# Freshly isolated immature embryos from Canon were inoculated with Agrobacterium. In all experiments Agrobacterium tumefacience LBA4404 (pSB1/pRLM167) (SEQ ID NO: 11) was used. The pRLM167 is a super binary vector containing p-ZmUBI+I::c-dsdA::t-OCS and p-ZmUBI+I::c-PAT::t-OCS selectable marker genes in expression cassettes (FIG. 1). Following co cultivation the explants were given a chance to recover for 14 days on callus induction selection free medium containing 160 mg/l Timentin to inhibit bacterial growth. Under these conditions 59% to 76% of the embryogenic callus developed over the all surface of immature embryos. Embryogenic callus was split in two and transferred to two the corresponding selection medium containing 5-mM D-serine or 3 mg/l bialaphos. During subsequent growth of callus, regeneration of plantlets, shoots elongation and roots formation the respective selection pressure was maintained in each of the corresponding medium. After 7 weeks of selection 38%-47% of the embryogenic calli regenerated with plants when selected on bialaphos or on D-serine respectively. Further selection of the regenerants was performed during the elongation and rooting of the regenerants for an additional 3 weeks. Intact in vitro transgenic shoots were selected within 10-12 weeks after co cultivation.
# Freshly isolated immature embryos from Canon were inoculated with Agrobacterium. In all experiments Agrobacterium tumefacience super binary vector system based on LBA4404 (pSB1) was used. The constructs pRLM179, pRLM166, pRLM151 (FIG. 2. I, II and III) containing dsdA selectable marker gene alone or with a second gene (ahas or gusINT) were used for transformation. The explants were cultured on selection medium right away after co-cultivation with Agrobacterium or were cultivated on callus induction—recovery medium for 7, 14 and 21 days containing only 160 mg/l Timentin for inhibiting bacterial growth. Furthermore calli were sub cultured to fresh selection PAW-2 medium for proliferation. Embryogenic calli were transferred on PAW-4 selection medium for regeneration 5-6 weeks after transformation. The emerging plantlets were further grown and rooted on PAW-5 hormone free selection medium. […]
# [2] = system: wheat variety Canon immature embryos / embryogenic callus; assay: Agrobacterium-mediated transformation with dao1 constructs and selection of transgenic plants; type: cell-based, Triticum aestivum; settings: 5 mM selection
# Experimental: as §1, §2
# Freshly isolated immature embryos from Canon were inoculated with Agrobacterium. In all experiments Agrobacterium tumefactions super binary vector system based on LBA4404 (pSB1) was used. The constructs pRLM205 containing the original dao1 gene and pRLM226 carrying modified Daol. Both constructs contain gusINT reporter marker gene (FIGS. 3, I and II). Following co cultivation the explants were transferred on callus induction PAW-2 selection free medium containing 160 mg/l Timentin to inhibit bacterial growth for 14 days. For selection embryogenic callus was transferred to PAW-2 selection medium containing 5 mM D-serine or 5 mM D-alanine respectively. Furthermore calli were sub cultured to fresh corresponding selection PAW-2 medium for maintaining. Embryogenic calli were trans-ferred on PAW-4 selection medium for regeneration 5-6 weeks after transformation. The emerging plantlets were further grown and rooted on PAW-5 hormone free selection medium. Well-developed and rooted on selection putative transgenic regenerants were selected in vitro within. When D-alanine was used as selection compound similar effects in callus growth, shoots regeneration and rooting of transgenic plants or non transgenic escapes selected on D-serine was observed. Both selection agents resulted with 1.1% to 1.2% transformation efficiency and no escape rate (Table 9).
# [3] = construct pRLM167 (dsdA/pat), selection on 5 mM D-serine or 3 mg/l bialaphos
# [4] = pRLM179 (dsdA/AHAS), 3 mM, selection started 21 days after co-cultivation
# [5] = pRLM179 (dsdA/AHAS), 5 mM, selection started 21 days after co-cultivation
# [6] = pRLM179 (dsdA/AHAS), 10 mM, selection started 21 days after co-cultivation
structure (smiles),measurement,setting,value
N[C@H](CO)C(=O)O [D-serine],ER Escape Rate (% of non-transgenic regenerants out of all selected plants),[1]; [3],17%
same,TE Transformation Efficiency (% of transgenic plants out of the explants),[1]; [3],2.1%
same,Average transformation efficiencies for both constructs,"[1]; dsdA constructs with ahas or gusINT, selection on D-serine",about 1%
same,TE (%) Transformation Efficiency,"[1]; pRLM166, 5 mM, start of selection 21 days",0.69%
same,ER (%) Escapes Rate,[1]; [4],100%
same,TE (%) Transformation Efficiency,[1]; [4],0%
same,ER (%) Escapes Rate,[1]; [5],25%
same,TE (%) Transformation Efficiency,[1]; [5],1.39%
same,ER (%) Escapes Rate,[1]; [6],0%
same,TE (%) Transformation Efficiency,[1]; [6],0.77%
same,ER (%) Escape Rate,[2]; pRLM205 (dao1 original),0%
same,TE (%) Transformation Efficiency,[2]; pRLM205 (dao1 original),1.1%
same,ER (%) Escape Rate,[2]; pRLM226 (dao1/ko modified),0%
same,TE (%) Transformation Efficiency,[2]; pRLM226 (dao1/ko modified),0.72%
